Assays:
SD (IGS) male rats = assay: Blood antioxidative activity (FRAP and ORAC methods) in rats after oral administration; assay type: in vivo, rat; conditions: 5 mL/kg; for blood antioxidative activity after administration: 0.8 mM suspension in 0.5% CMC or olive oil, FRAP and ORAC, up to 24 hours
Procedure: The influence of DRA on blood antioxidative activity was evaluated using rats. The evaluation of blood antioxidative activity was performed using the FRAP and ORAC methods. The DRA and acteoside used in this evaluation were those prepared by the same procedures as in Example 2 and Preparation Example 2, respectively.
(§1) SD (IGS) male rats (6 weeks old) were purchased from Charles River Laboratories Japan, Inc. After the rats were acclimated to the test environment for one week, those rats which grew normally were subjected to testing. The rats were fasted overnight and divided into five groups each consisting of three rats. Rats were orally administered a 0.5% CMC solution (Group 1), a suspension of DRA in 0.5% CMC (0.8 mM) (Group 2), a suspension of purified acteoside in 0.5% CMC (0.8 mM) (Group 3), an olive oil solution (Nacalai Tesque, Inc.; Code No. 073-26) (Group 4), and a suspension of DRA in olive oil (0.8 mM) (Group 5), each at a dose of 5 mL/kg. Before administration and 0.5, 1, 3, 6, 9 and 24 hours after administration for Groups 1-3, or before administration and 1, 3, 6, 9 and 24 hours after administration for Groups 4-5, a blood sample was collected from the caudal vein in heparinized tube and was centrifuged (at 8,000 rpm for 10 min.) to obtain plasma sample. At a later date, plasma FRAP activity as well as the ORAC activity of the supernatants obtained after deproteinization with acetone were evaluated.

[1] = Absorption in the body: blood concentrations by LC-MS/MS after oral administration; assay type: in vivo, rat; conditions: rats; for Cmax: male, SD (IGS), rat, 4 µmol/kg, suspension in 0.5% CMC (0.8 mM), 5 mL/kg, pooled plasma, β-glucuronidase/arylsulphatase treated, read-out: maximum blood concentration (Cmax) of the administered compound itself
Procedure: as §1
Among the plasma samples collected for the determination of blood antioxidative activity in Example 5, some parts of those samples from Group 1 (a 0.5% CMC solution), Group 2 (a suspension of DRA in 0.5% CMC) and Group 3 (a suspension of acteoside in 0.5% CMC) were used to determine the blood concentrations of the respective samples after administration.
After equivalent amounts of the plasma samples from the three rats in each group were mixed and homogenized, 90 μL of a helix pomatia-derived β-glucuronidase/arylsulphatase/acetate buffer (pH 5.0) was added to 90 μL of the plasma mixture and incubation was conducted at 37° C. for one hour. After 900 μL of acetonitrile was added to terminate the reaction, 10 μL of an aqueous solution of 1% ascorbic acid and 10 μL of an internal standard solution were added, and the contents were mixed and centrifuged (at 15,000 rpm for 10 min.) to recover a supernatant. The recovered supernatant was concentrated under reduced pressure, dissolved again in 50% methanol, passed through a filter, and subjected to LC-MS/MS analysis to quantify acteoside, DRA, hydroxytyrosol, and coffeic acid. The amounts of acteoside, DRA, hydroxytyrosol, and coffeic acid were determined by the ratio of each of their peak areas to the peak area of hesperidin (Wako) used as an internal standard. The LC-MS/MS analysis conditions are shown below.

[2] = oral; cited from earlier work
[3] = acteoside versus DRA; cited from earlier work
[4] = suspension in 0.5% CMC, DRA versus acteoside

Structure (SMILES) | blood antioxidative activity after administration (SD (IGS) male rats) | time of earlier peak of FRAP activity after administration (SD (IGS) male rats; DRA 0.8 mM, first of bimodal peaks) | time of later peak of FRAP activity after administration (SD (IGS) male rats; DRA 0.8 mM, second of bimodal peaks) | Cmax [1] | amount absorbed in the body relative to acteoside, by AUCs of coffeic acid [1, 4] | amount absorbed in the body relative to acteoside, by AUCs of hydroxytyrosol [1, 4] | absorbability when orally ingested [2] | in vitro antioxidative activity, comparison [3]
O=C(C=Cc1ccc(O)c(O)c1)O[C@@H]1C(CO)OC(OCCc2ccc(O)c(O)c2)C(O)C1O (stereo partly shown) [DRA, desrhamnosyl acteoside] | apparent increase | 1 to 3 h | 9 h | < 1000 nM | about 13 times | about 3 times | – | –
C[C@@H]1O[C@@H](O[C@@H]2[C@@H](O)[C@H](OCCc3ccc(O)c(O)c3)O[C@H](CO)[C@H]2OC(=O)/C=C/c2ccc(O)c(O)c2)[C@H](O)[C@H](O)[C@H]1O [acteoside] | little increase | – | – | < 1000 nM | – | – | poor absorbability | more active than DRA
